Results: patent US4895867A, “2-(5-phenyl-2-furanyl)imidazoles useful as cardiotonic agents” (Norwich Eaton Pharmaceuticals, Inc., priority 1988, dated 1990)
pEC50: −log10 of the molar value. Where a name gives a salt, the structure may show the parent alone.

Test system: guinea pig atrial muscle
Assay: In vitro guinea pig atrial muscle contractile force measurement (Test Method I)
Format: cell-based
Settings: Cavia porcellus; calculated concentration required to increase the contractile force by 50% from the control level; isolated left atria, 30° C., mean of at least three tissues
Text: Kaplan, "Strategy for the Discovery and Development of a Positive Inotropic Agent", Pharmacology and Therapeutics, Vol. 16 (1982), pp. 303-330. This test measures the effects of such compounds on the contractility of cardiac tissue excised from the atrial muscle of a guinea pig. In vitro guinea pig atrial muscle contractile force measurement Unfasted male Hartley albino guinea pigs, weighing 450-650 g (Charles River Breeding Laboratories, Inc., Wilmington, MA) were used in these studies. They were killed by cranial concussion at the beginning of the experiment. The heart was quickly removed into a Petri dish filled with a solution of the following composition (in water): NaCl 99.0 mM; Dextrose 11.0 mM; […]; MgSO4 1.2 mM; NaH2 PO4 1.3 mM; CaCl2.2H2 O 2.5 mM; NaHCO3 25.01 mM; bubbled with 95% 02 :5% CO2 at room temperature. A triple O silk ligature was tied to the edge of the left atrial appendage, using an intestinal needle. The appendage was cut off; a section was cut away from the wall which faced the heart, retaining a sheet of tissue from the outer face of the atrium. The tissue was mounted from a pair of point stimulating electrode hooks with 1 gram of tension in an organ bath maintained at 30° C. The ligature was tied to a Grass FT-103 force-displacement transducer, and responses were measured in grams of developed tension with a Grass Model 7 polygraph (Grass Instrument Co., Quincy, MA). The left atria were stimulated electrically with the following square wave parameters: 3 v; 4 msec 1 Hz, as soon as they were put into the baths. After a short time (3-5 minutes), voltage was increased until stable responses were obtained (10-25% above threshold). The tissues were allowed to equilibrate under such stimulation for at least 1 hour before experimentation. The test compounds were dissolved in water, if water soluble, or if not, in tetrahydrofurfuryl alcohol (Eastman D5C) or in an organic vehicle containing 90% polyethylene glycol, 6% ethanol, 3% propylene glycol and 1% H2 O). (Test compound solution concentrations were selected to keep injection volumes between 1 and 10 μl). Isoproterenol (0.54 to 5.4 nM) was given at the beginning of each experiment to confirm the viability and responsiveness of the tissues. Test agents were given in several graded doses in logarithmic increments. Responsiveness to isoproterenol was also assessed at the end of the experiment unless other positive drug responses were obtained near the end of the experiment. Results were expressed as percent change from control for contractile force. The EC50 value (calculated concentration required to increase the contractile force by 50% from the control level) for each tissue was obtained, where possible, by regression analysis. The mean of the EC50 values was obtained from at least three individual tissues for each compound tested. Compounds having the following chemical structure were tested for cardiotonic activity according to one or both of the above test methods: [drawing 3] Determinations of contractile force EC50 according to Test Method I and ventricular pressure ED50 according to Test Method II which have been obtained for the compounds are provided in Table I: […]

Structure (SMILES) | pEC50
O=[N+]([O-])c1ccc(-c2ccc(-c3ncc[nH]3)o2)cc1 [Example 1] | 3.59
Clc1ccc(-c2ccc(-c3ncc[nH]3)o2)cc1 [Example 2] | 5.46
FC(F)(F)c1cccc(-c2ccc(-c3ncc[nH]3)o2)c1 [Example 3] | 5.19
COc1ccc(-c2ccc(-c3ncc[nH]3)o2)cc1OC [Example 4] | 3.72
O=[N+]([O-])c1ccccc1-c1ccc(-c2ncc[nH]2)o1 [Example 5] | 4.22
c1ccc(-c2ccc(-c3ncc[nH]3)o2)cc1 [Example 6] | 4.64
CC(=O)c1ccc(-c2ccc(-c3ncc[nH]3)o2)cc1 [Example 7] | 4.40
Brc1ccccc1-c1ccc(-c2ncc[nH]2)o1 [Example 8, 2-[5-(2-Bromophenyl)-2-furanyl]imidazole Hydrochloride Tetartohydrate] | 5.24
Clc1ccccc1-c1ccc(-c2ncc[nH]2)o1 [Example 9] | 5.43
Fc1ccccc1-c1ccc(-c2ncc[nH]2)o1 [Example 10] | 5.14
FC(F)(F)c1ccccc1-c1ccc(-c2ncc[nH]2)o1 [Example 11] | 4.55
Clc1ccc(-c2ccc(-c3ncc[nH]3)o2)c(Cl)c1 [Example 12] | 5.89
Clc1ccc(-c2ccc(-c3ncc[nH]3)o2)cc1Cl [Example 13] | 5.27
Brc1ccc(-c2ccc(-c3ncc[nH]3)o2)cc1 [Example 14] | 5.89
Fc1ccc(-c2ccc(-c3ncc[nH]3)o2)cc1 [Example 15] | 4.48
FC(F)(F)c1ccc(-c2ccc(-c3ncc[nH]3)o2)cc1 [Example 16] | 5.52
COc1ccc(-c2ccc(-c3ncc[nH]3)o2)c([N+](=O)[O-])c1 [Example 17] | 5.09

Structure (SMILES) | pEC50
Cn1ccnc1-c1ccc(-c2ccccc2Br)o1 [Example 18] | 4.68
Cc1ccc(-c2ccc(-c3ncc[nH]3)o2)cc1 [Example 19, 2-[5-(4-methylphenyl)-2-furanyl]-1H-imidazole hydrochloride] | 5.43
CC(C)c1ccc(-c2ccc(-c3ncc[nH]3)o2)cc1 [Example 20, 2-[5-[4-(1-Methylethyl)phenyl]-2-furanyl]-1H-imidazole Hydrochloride] | 5.17
Brc1ccc(-c2ccc(-c3ncc[nH]3)o2)c(Br)c1 [Example 21] | 5.10
Cn1ccnc1-c1ccc(-c2ccc(Br)cc2)o1 [Example 22] | < 4.00
Cc1c[nH]c(-c2ccc(-c3ccc(Br)cc3)o2)n1 [Example 23, 2-[5-(4-Bromophenyl)-2-furanyl]-4-methyl-1H-imidazole Hydrochloride] | 6.30
Brc1cccc(Br)c1-c1ccc(-c2ncc[nH]2)o1 [Example 24] | < 4.00
Cc1ccc(-c2ccc(-c3ncc[nH]3)o2)c(Br)c1 [Example 25] | 5.82
FC(F)(F)c1cc(-c2ccc(-c3ncc[nH]3)o2)ccc1Br [Example 26] | 5.40
Ic1ccc(-c2ccc(-c3ncc[nH]3)o2)cc1 [Example 27] | 4.99
COc1ccc(-c2ccc(-c3ncc[nH]3)o2)cc1 [Example 28] | 4.55
COc1cc(-c2ccc(-c3ncc[nH]3)o2)ccc1Br [Example 29, 2-[5-(4-Bromo-3-methoxyphenyl)-2-furanyl]-1H-imidazole Hydrochloride] | 5.47
CCn1ccnc1-c1ccc(-c2ccccc2Br)o1 [Example 30, 2-[5-(2-Bromophenyl)-2-furanyl]-1-ethyl-1H-imidazole Hydrochloride] | 4.67
Cc1cc(Br)ccc1-c1ccc(-c2ncc[nH]2)o1 [Example 31, 2-[5-(4-Bromo-2-methylphenyl)-2-furanyl]-1H-imidazole Hydrochloride] | 5.72
Cc1c[nH]c(-c2ccc(-c3ccccc3Br)o2)n1 [Example 32, 2-[5-(2-Bromophenyl)-2-furanyl]-4-methyl-1H-imidazole Hydrochloride] | 5.77
Cc1cnc(-c2ccc(-c3ccc(Br)cc3)o2)n1C [Example 33, 2-[5-(4-Bromophenyl)-2-furanyl]-1,5-dimethyl-1H-imidazole Hydrochloride] | 4.30
Cc1cn(C)c(-c2ccc(-c3ccc(Br)cc3)o2)n1 [Example 34, 2-[5-(4-Bromophenyl)-2-furanyl]-1,4-dimethyl-1H-imidazole Hydrochloride Hydrate] | < 4.00

Test system: right ventricle of guinea pig
Assay: In vivo guinea pig ventricular pressure measurement (Test Method II)
Settings: Cavia porcellus, iv; calculated dose required to increase the right ventricular pressure by 50% from the control level, anesthetized guinea pig
Procedure: An additional or alternative method for testing the cardiotonic activity of compounds of the present invention is set forth in the following reference: Beek, O. G., "A Small Animal Model for Monitoring Inotropic Responses to Cardiotonic Agents", Journal of Pharmacological Methods, Vol. 7 (1982), pp. 321-329. Right ventricular inotropic responses are measured in an anesthetized, close-chested guinea pig using a pressure-sensitive transducer inserted into the right ventricle of the heart via the right jugular vein.
In vivo guinea pig ventricular pressure measurement
Unfasted male Hartley albino guinea pigs, weighing 450-650 g (Charles River Breeding Laboratories, Inc., Wilmington, MA) were used in these studies. Under ethyl carbamate (urethane) anesthesia (1.25 g/kg i.p.), the trachea was cannulated through a mid-ventral cervical incision. The left carotid artery was cannulated with PE-50 tubing (Clay Adams Co., Parsippany, NJ) filled with 100 µg/ml heparin for blood pressure monitoring, and the left jugular vein was cannulated (catheter filled with saline) for drug administration. A 3Fr Millar Mikro-Tip ventricular pressure catheter (Millar instruments, Inc., Houston, Texas) was positioned in the right ventricle via the right jugular vein. A thoracotomy was performed and the guinea pig was respired by a rodent respirator (Model 680, Harvard Apparatus Co., Millis, MA) at a rate of 8 ml/stroke×40 strokes/minute. A modified Brodie strain gauge (Warren Research Products, Charleston, South Carolina) was sutured on the right ventricle parallel to, but avoiding, the intraventricular septum. The rectal body temperature of 37° C. was maintained by an electronic temperature controlled lamp. The animals were left undisturbed for 60 minutes before being used for an experiment.
A single i.v. bolus does of 0.3 μg/kg isoproterenol was administered followed by a 0.2 ml saline flush prior to and at the end of each experiment to check the viability and responsiveness of each animal. Usually a vehicle does in a volume equal to the single largest volume of compound to be administered was intravenously injected 20-30 minutes after the initial isoproterenol injection when parameters had returned to baseline levels. A non-cumulative dose response curve was determined for each compound using a minimum of 3 doses. Time between doses for all compounds was dependent upon the time needed for all parameters to return to baseline or stable levels. A minimum of 3 animals per dose level was tested for each compound.
Results were expressed as percent changes from pretreatment baseline for all parameters measured. The ED50 values of ventricular pressure changes (calculated dose required to increase the right ventricular pressure by 50% from the control level) of test compounds were determined by regression analysis.
Compounds having the following chemical structure were tested for cardiotonic activity according to one or both of the above test methods: [drawing 3] Determinations of contractile force EC50 according to Test Method I and ventricular pressure ED50 according to Test Method II which have been obtained for the compounds are provided in Table I: […]

Structure (SMILES) | ED50
Clc1ccc(-c2ccc(-c3ncc[nH]3)o2)cc1 [Example 2] | 0.31 mg/kg
COc1ccc(-c2ccc(-c3ncc[nH]3)o2)cc1OC [Example 4] | 3.16 mg/kg
O=[N+]([O-])c1ccccc1-c1ccc(-c2ncc[nH]2)o1 [Example 5] | 29.1 mg/kg
c1ccc(-c2ccc(-c3ncc[nH]3)o2)cc1 [Example 6] | 1.98 mg/kg
Brc1ccccc1-c1ccc(-c2ncc[nH]2)o1 [Example 8, 2-[5-(2-Bromophenyl)-2-furanyl]imidazole Hydrochloride Tetartohydrate] | 0.8 mg/kg
Clc1ccc(-c2ccc(-c3ncc[nH]3)o2)c(Cl)c1 [Example 12] | 2.05 mg/kg
